Test results: US20180140578A1, “METHODS AND COMPOSITIONS FOR THE DIAGNOSIS AND SELECTIVE TREATMENT OF CANCER” (Board of Regents of the University of Texas System, priority 2016, published 2018)

How the values were obtained:
[1] = target: T1, RBM39-Nluc (Homo sapiens, UniProt Q14498+Q66K64); test: RBM39-Nluc degradation by Nano-Glo luciferase assay; format: cell-based; settings: H1155 RBM39-Nluc cells; read-out: decrease in RBM39-Nluc activity (IC50)
T1 construct: Homology directed repair facilitates tagging of endogenous RBM39 by AID, 3xFLAG, AcGFP, or Nanoluciferase; endogenous in cells; host or cells: H1155 RBM39-Nluc knock-in cells
Procedure: NanoLuc was knocked-in to the 3-prime end of the RBM39 gene using the procedure described above yielding H1155 RBM39-Nluc cells. […] Luminescence was recorded by EnVision multimode plate reader (Perkin Elmer). IC50 was determined with GraphPad Prism using baseline correction (by normalizing to DMSO control), the asymmetric (five parameter) equation and least squares fit.

[2] = system: HCT-116 cells; test: Cell viability assay (CellTiter-Glo); format: cell-based, human; settings: Homo sapiens, read-out: concentration required to reduce the viability by 50% (IC50); parental HCT-116 cells
Procedure: The identity for all human cell lines in this study was confirmed by short tandem repeat (STR) analysis. In addition, all human cell lines were confirmed to be mycoplasma free using a PCR based assay (Genatlantis). HCT-116 cells (ATCC) were grown in DMEM medium with 10% FBS and 2 mM L-glutamine. Lenti-X 293T cells (Clontech) were cultured in DMEM medium with 10% FBS and 2 mM L-glutamine. H1155 cells (a gift from Adi Gazdar and John Minna, UT Southwestern) were cultured in RPMI media with 5% FBS and 2 mM L-glutamine. SF9 cells (a gift from Hongtao Yu, UT Southwestern) were cultured in SF900 II serum free media (Life Technologies).
(§1) 12-point dose responses were performed on 96-well assay plates with cell plating (1500-4000 cell per well) on day 1, compound addition on day 2, and survival measurement on day 5. Compounds were diluted in DMSO before adding to the cells. Final DMSO concentration was 0.5%. Cell survival assay was performed using CellTiter-Glo Luminescent Cell Viability Assay kit (Promega) that measures cellular ATP content. Luminescence was recorded by EnVison multimode plate reader (Perkin Elmer). IC50 was determined with GraphPad Prism using baseline correction (by normalizing to DMSO control), the asymmetric (five parameter) equation and least squares fit.

[3] = system: pre-mRNA splicing in HCT-116 cells harboring RBM39 G268V; test: RNA-seq analysis of splicing changes, RBM39 G268V; format: cell-based, human; settings: 2 μM indisulam
Source text: RNAs were extracted using Quick-RNA MiniPrep kit (Zymo Research). After cleaning up genomic DNA contaminant with Turbo DNase (Life Technologies) and rRNA depletion, strand-specific cDNA libraries were generated using the TruSeq Stranded mRNA Sample Prep Kit (IIlumina) and were subjected to high throughput sequencing using
HiSeq2500 platform (Illumina) with 100-bp single-end reads. NGS QC Toolkit (v2.3.1) (49) was used to check the sequencing quality, and high-quality reads were aligned by TopHat (v2.0.8) (50) to human reference genome (hg19) along with the gene annotation data downloaded from Illumina's iGenomes (support.illumina.com/sequencing/sequencing_software/igenome.ilmn). The insert-size metrics required in TopHat execution and the correctness of strand specificity were estimated by mapping reads to human transcript sequences using Bowtie (v2.1.0) (51) and Picard-tools (v1.99) (picard.sourceforge.net). The htseq-count script distributed with the HTSeq Python package (0.6.1) (pypi.python.org/pypi/HTSeq) was employed for counting reads in genes considering the coding strands. Source data for RNA sequencing data is available under NCBI SRA accession SRP096666.
For the stringent detection of differential skipped exons and retained introns, a custom program called SpliceFisher was developed and it is downloadable at github.com/jiwoongbio/SpliceFisher. […]

[4] = system: HCC78 and H1373; test: 3 day viability assay, U2AF1 mutant lung cancer cell lines; format: cell-based, human
Source text: HCC78 and H1373 non-small cell lung cancer cell lines harbor a heterozygous mutations (C to T) in U2AF1 leading to a Serine to Phenylalanine mutation at position 34. FIG. 19 depicts Sanger sequencing of a RT-PCR product from both cell lines. […] Thus, mutations in splicing factor U2AF1 can be used as a biomarker for treating cancer, in a DCAF15 independent manner or together with the DCAF15 biomarker.

[5] = system: indisulam resistant HCT-116 clones; test: Cell viability assay, indisulam resistant clones; format: cell-based, human
Procedure: The methods for generating a population of barcoded HCT-116 cells were described before (20). […] Clones that appeared after the selection was then expanded and barcode genotyped to identify six clones with unique barcodes. […] Source data for exome sequencing data is available under NCBI SRA accession SRP068238. Bortezomib resistant clones were isolated by selection with 5 nM bortezomib, and MLN4924 resistant clones with 40 nM MLN4924.
as §1

[6] = target: T2, RBM39 G268V-3xFLAG (Homo sapiens, UniProt Q66K64); test: In vivo polyubiquitination of RBM39 G268V; format: cell-based; settings: following indisulam treatment
T2 construct: expressed in transfected cells; host or cells: 293T
Procedure: cDNAs encoding RBM39-3xFLAG, RBM39 G268V-3xFLAG, and DCAF15-V5 were cloned into the pCDNA3.1+vector. pCMV 8XHis Ub was a gift from William Kaelin (Dana Farber Cancer Institute). 0.4 million 293T cells were seeded per well on 6-well plates and allowed to attach overnight. 250 ng of pCMV 8XHis Ub, 500 ng of pCDNA3-DCAF15-V5, 10 ng of either pCDNA3-RBM39-3xFLAG or pCDNA3-RBM39 G268V-3xFLAG were transfected. […] Cells were lifted from the plates by pipetting, pelleted by centrifugation, and washed once with PBS. Purification of His-Ub tagged proteins was performed as described (5).

## NS(=O)(=O)c1ccc(S(=O)(=O)Nc2cccc3c(Cl)c[nH]c23)cc1 [Indisulam, indisulam]
[1]
  DC50: 360 nM
[2]
  IC50: 560 nM
[3]; HCT-116 RBM39 G268V
  exon skipping events: 3
[3]; cells expressing the RBM39 G268V allele
  intron retention events: no intron retention event
[4]
  sensitivity of cancer cell lines harboring a mutation in U2AF1: sensitive
[5]; Homo sapiens, HCT-116
  IC50: 9300 nM
[5]; five of six clones, concentrations as high as 50
  sensitivity of indisulam resistant clones: insensitive
[5]; sixth indisulam resistant clone
  times less sensitive than the parental HCT-116 cells: 17 times
[6]
  RBM39 G268V ubiquitination: not ubiquitinated
